Laboratory results from patent US10662229B2, “Spider venom peptides and methods of use for modulating sodium channels” (priority 2016, dated 2020).
Where a SMILES comes first, the peptide text is derived from it. Bridges are numbered along the chain shown (N, C = ends).

Experiments:
Format in all cases: cell-based
[1] = target: T1, hNav1.1 (Homo sapiens, UniProt P35498); assay: FLIPR membrane potential assay, hNav1.1; conditions: for Selectivity for Nav1.7, Nav subtype 1.1: membrane potential assay
T1 construct: host or cells: HEK293
Description: (§1) HEK293 cells stably expressing hNav1.1, hNav1.2, hNav1.3, hNav1.4, hNav1.5, hNav1.6, hNav1.7 and […] (SB Drug Discovery, Glasgow, UK) were cultured in minimum essential media (MEM) containing 10% v/v FBS supplemented with L-glutamine (2 mM) and selection antibiotics G-418 (0.5 mg/mL), blasticidin (2-4 μg/mL) and zeocin (0.5 mg/mL) as recommended by the manufacturer. CHO cells stably expressing hNav1.8 in a tetracycline-inducible system (Chantest, OH, USA) were cultured in Ham's F-12 containing 10% v/v FBS and selection antibiotics as recommended by the manufacturer. To induce hNav1.8 expression, cells were cultured in the presence of tetracycline (1 μg/mL) for 24 h at 27° C. Cells were grown in a humidified 5% CO2 incubator at 37° C., grown to 70-80% confluence, and passaged every 3-4 days using TrypLE Express (Invitrogen).
(§2) Cells were plated 48 h before the assay on 384-well black walled imaging plates at a density of 10,000 to 15,000 cells per well and were loaded with red membrane potential dye for 30 min at 37° C. (Molecular Devices, CA, USA). One vial of bulk red membrane potential dye was reconstituted to a 10× stock solution with PSS and stored at −20° C. and diluted to 1× solution with PSS on the day of the assay. […] Changes in membrane potential were assessed using the FLIPR^TETRA (excitation 515 to 545 nm, emission 565 to 625 nm) every second for 300 s after adding agonists.

[2] = target: T2, hNav1.2 (Homo sapiens, UniProt Q99250); assay: FLIPR membrane potential assay, hNav1.2; conditions: for Selectivity for Nav1.7, Nav subtype 1.2: membrane potential assay
T2 construct: host or cells: HEK293
Description: as §1, §2

[3] = target: T3, hNav1.3 (Homo sapiens, UniProt Q9NY46); assay: FLIPR membrane potential assay, hNav1.3; conditions: for Selectivity for Nav1.7, Nav subtype 1.3: membrane potential assay
T3 construct: host or cells: HEK293
Description: as §1, §2

[4] = target: T4, hNav1.4 (Homo sapiens, UniProt P35499); assay: FLIPR membrane potential assay, hNav1.4; conditions: for Selectivity for Nav1.7, Nav subtype 1.4: membrane potential assay
T4 construct: host or cells: HEK293
Description: as §1, §2

[5] = target: T5, hNav1.5 (Homo sapiens, UniProt Q14524); assay: FLIPR membrane potential assay, hNav1.5; conditions: for Selectivity for Nav1.7, Nav subtype 1.5: membrane potential assay
T5 construct: host or cells: HEK293
T5 sequence (Q14524 whole entry): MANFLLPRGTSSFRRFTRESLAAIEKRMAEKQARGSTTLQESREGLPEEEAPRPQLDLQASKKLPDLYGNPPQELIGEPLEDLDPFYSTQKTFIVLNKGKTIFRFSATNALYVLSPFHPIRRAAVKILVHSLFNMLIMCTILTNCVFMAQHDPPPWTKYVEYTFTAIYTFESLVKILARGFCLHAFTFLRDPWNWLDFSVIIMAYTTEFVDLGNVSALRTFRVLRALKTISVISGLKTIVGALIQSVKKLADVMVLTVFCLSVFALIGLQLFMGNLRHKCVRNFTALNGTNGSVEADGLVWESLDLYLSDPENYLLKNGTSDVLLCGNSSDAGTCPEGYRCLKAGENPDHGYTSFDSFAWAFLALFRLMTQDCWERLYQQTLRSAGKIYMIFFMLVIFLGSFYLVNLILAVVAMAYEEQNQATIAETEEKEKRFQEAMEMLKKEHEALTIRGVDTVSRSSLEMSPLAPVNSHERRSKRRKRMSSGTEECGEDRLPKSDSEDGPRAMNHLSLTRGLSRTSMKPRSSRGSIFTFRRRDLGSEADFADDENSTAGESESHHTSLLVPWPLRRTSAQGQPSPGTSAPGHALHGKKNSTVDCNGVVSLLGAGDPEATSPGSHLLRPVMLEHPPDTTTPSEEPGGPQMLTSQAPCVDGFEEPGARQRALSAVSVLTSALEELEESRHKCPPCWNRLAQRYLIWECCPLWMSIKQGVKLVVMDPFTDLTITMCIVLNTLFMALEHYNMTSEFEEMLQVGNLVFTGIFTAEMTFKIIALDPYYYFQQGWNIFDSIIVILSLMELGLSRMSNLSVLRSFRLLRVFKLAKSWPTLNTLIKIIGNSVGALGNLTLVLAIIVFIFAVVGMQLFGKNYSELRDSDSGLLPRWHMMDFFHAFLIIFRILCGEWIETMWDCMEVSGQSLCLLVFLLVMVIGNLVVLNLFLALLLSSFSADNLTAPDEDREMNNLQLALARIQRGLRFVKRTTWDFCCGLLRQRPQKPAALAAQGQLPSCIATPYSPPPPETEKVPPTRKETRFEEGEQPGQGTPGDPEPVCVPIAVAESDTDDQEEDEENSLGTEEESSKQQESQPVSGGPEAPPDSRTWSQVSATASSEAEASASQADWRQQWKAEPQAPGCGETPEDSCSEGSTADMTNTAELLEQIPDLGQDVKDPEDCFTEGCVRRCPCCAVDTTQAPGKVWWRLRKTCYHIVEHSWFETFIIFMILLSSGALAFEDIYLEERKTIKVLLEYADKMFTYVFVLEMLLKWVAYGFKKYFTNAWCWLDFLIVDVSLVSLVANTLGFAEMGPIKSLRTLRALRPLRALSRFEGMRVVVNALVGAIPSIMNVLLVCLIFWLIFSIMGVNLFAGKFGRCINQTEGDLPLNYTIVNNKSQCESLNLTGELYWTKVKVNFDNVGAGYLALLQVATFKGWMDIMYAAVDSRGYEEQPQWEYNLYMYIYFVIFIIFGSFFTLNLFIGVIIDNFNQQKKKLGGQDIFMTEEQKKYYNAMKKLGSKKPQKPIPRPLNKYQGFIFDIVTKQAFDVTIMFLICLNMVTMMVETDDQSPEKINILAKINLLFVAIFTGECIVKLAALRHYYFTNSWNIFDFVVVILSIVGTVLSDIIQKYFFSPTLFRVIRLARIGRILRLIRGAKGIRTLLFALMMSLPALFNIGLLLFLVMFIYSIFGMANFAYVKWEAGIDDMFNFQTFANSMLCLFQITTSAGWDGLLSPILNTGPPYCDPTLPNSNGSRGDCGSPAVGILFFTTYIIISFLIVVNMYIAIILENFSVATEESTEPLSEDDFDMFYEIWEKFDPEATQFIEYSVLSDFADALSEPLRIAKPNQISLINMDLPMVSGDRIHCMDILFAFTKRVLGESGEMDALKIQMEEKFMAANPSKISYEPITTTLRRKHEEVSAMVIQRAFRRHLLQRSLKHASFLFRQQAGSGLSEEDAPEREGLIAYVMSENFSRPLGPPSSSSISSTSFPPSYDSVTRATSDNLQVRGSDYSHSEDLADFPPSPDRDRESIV
Description: as §1, §2

[6] = target: T6, hNav1.6 (Homo sapiens, UniProt Q9UQD0); assay: FLIPR membrane potential assay, hNav1.6; conditions: for Selectivity for Nav1.7, Nav subtype 1.6: membrane potential assay
T6 construct: host or cells: HEK293
Description: as §1, §2

[7] = target: T7, hNav1.7 (Homo sapiens, UniProt Q15858); assay: FLIPR membrane potential assay, hNav1.7; conditions: for Selectivity for Nav1.7, Nav subtype 1.7: membrane potential assay, reference subtype
T7 construct: host or cells: HEK293
Description: as §1, §2

[8] = target: T8, hNav1.8 (Homo sapiens, UniProt Q9Y5Y9); assay: FLIPR membrane potential assay, hNav1.8; conditions: for Selectivity for Nav1.7, Nav subtype 1.8: membrane potential assay
T8 construct: host or cells: HEK293
T8 sequence (Q9Y5Y9 whole entry): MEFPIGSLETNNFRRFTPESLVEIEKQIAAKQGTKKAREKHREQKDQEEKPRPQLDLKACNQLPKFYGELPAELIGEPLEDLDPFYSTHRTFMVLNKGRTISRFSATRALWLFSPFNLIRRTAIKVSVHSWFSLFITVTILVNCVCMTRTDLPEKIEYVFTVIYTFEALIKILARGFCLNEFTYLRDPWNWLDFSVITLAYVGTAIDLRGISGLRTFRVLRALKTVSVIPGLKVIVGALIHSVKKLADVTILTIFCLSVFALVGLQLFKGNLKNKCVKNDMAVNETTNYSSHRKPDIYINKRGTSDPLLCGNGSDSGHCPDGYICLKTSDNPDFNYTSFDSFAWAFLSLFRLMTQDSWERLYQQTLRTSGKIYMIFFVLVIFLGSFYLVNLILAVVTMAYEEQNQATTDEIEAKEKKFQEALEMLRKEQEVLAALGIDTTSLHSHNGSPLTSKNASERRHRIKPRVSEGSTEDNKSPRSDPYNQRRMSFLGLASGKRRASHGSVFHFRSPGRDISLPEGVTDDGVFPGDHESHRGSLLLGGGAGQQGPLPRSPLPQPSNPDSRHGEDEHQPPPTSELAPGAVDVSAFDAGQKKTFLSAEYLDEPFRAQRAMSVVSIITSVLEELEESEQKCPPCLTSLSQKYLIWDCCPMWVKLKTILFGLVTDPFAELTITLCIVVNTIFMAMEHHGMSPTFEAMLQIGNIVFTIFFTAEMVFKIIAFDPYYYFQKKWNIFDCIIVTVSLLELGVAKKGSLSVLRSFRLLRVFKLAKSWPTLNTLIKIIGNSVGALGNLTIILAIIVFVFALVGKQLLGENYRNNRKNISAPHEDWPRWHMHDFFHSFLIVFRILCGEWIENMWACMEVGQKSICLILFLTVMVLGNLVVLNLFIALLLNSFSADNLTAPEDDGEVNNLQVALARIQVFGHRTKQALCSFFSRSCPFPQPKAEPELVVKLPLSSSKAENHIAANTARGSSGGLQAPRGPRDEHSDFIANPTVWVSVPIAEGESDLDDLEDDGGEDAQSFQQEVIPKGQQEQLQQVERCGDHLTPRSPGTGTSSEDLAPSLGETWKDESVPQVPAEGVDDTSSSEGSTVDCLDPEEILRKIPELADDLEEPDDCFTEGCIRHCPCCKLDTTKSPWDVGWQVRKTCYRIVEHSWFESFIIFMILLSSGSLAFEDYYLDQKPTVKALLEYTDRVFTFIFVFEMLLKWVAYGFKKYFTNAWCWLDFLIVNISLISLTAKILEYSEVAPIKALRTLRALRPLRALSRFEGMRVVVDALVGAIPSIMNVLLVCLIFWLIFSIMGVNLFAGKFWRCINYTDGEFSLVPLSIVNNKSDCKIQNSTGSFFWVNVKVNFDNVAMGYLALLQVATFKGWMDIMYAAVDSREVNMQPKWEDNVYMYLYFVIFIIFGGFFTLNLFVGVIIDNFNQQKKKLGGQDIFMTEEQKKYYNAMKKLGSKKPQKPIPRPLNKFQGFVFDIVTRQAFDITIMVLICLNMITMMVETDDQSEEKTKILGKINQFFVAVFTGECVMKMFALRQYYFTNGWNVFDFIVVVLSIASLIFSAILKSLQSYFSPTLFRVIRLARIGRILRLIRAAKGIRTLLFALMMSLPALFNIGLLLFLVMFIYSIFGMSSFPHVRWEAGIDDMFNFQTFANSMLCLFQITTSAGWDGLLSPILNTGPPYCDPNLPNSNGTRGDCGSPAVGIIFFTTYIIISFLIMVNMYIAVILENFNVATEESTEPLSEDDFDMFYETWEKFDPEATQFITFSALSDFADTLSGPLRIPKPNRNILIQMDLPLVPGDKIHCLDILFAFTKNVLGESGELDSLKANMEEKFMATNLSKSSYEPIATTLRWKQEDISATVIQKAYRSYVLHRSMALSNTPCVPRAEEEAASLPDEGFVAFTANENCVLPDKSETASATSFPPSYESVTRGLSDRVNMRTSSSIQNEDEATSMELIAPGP
Description: as §1, §2

Row | Compound | IC50 [1] [µM] | Selectivity for Nav1.7, Nav subtype 1.1 [1] | IC50 [2] [µM] | Selectivity for Nav1.7, Nav subtype 1.2 [2] | IC50 [3] [µM] | Selectivity for Nav1.7, Nav subtype 1.3 [3] | IC50 [4] [µM] | Selectivity for Nav1.7, Nav subtype 1.4 [4] | IC50 [5] [µM] | Selectivity for Nav1.7, Nav subtype 1.5 [5] | IC50 [6] [µM] | Selectivity for Nav1.7, Nav subtype 1.6 [6] | IC50 [7] [µM] | Selectivity for Nav1.7, Nav subtype 1.7 [7] | IC50 [8] [µM] | Selectivity for Nav1.7, Nav subtype 1.8 [8]
1 | CSCC[C@@H]1NC(=O)[C@H](Cc2ccc(O)cc2)NC(=O)[C@H](CCCNC(=N)N)NC(=O)[C@@H](NC(=O)[C@@H](N)CC(=O)O)CSSC[C@@H]2NC(=O)[C@@H]3CSSC[C@@H](C(=O)N[C@@H](C)C(=O)N[C@@H](Cc4c[nH]c5ccccc45)C(=O)N[C@@H](CC(=O)O)C(=O)N[C@@H](Cc4ccccc4)C(=O)N[C@H](C(=O)N[C@@H](Cc4ccccc4)C(=O)N[C@H](C(=O)O)[C@@H](C)O)[C@@H](C)O)NC(=O)[C@H](Cc4ccc(O)cc4)NC(=O)[C@H](CCCCN)NC(=O)[C@H](CCSC)NC(=O)[C@H](CCCCN)NC(=O)[C@H](CCCNC(=N)N)NC(=O)[C@H](CCCCN)NC(=O)[C@H](CSSC[C@H](NC(=O)[C@H](CC(N)=O)NC(=O)CNC(=O)[C@H](Cc4ccccc4)NC1=O)C(=O)N[C@@H](CCC(=O)O)C(=O)N[C@@H](CCCCN)C(=O)N[C@@H](CC(=O)O)C(=O)N[C@@H](CCC(=O)O)C(=O)N[C@@H](CC(=O)O)C(=O)N3)NC(=O)CNC(=O)[C@H](CC(C)C)NC(=O)[C@H](Cc1c[nH]cn1)NC(=O)[C@H](CCCCN)NC2=O [[D8N]Pnc1a] (H-DCRYMFGNCEKDEDCCKHLGCKRKMKYCAWDFTFT-OH; disulfide 2-16, 9-21, 15-28) | 0.349 | 14 | 0.147 | 6 | 3 | 118 | 0.852 | 35 | > 30 | >1000 | > 30 | >1000 | 0.024 | 1 | > 30 | >1000
2 | CSCC[C@@H]1NC(=O)[C@H](Cc2ccc(O)cc2)NC(=O)[C@H](CCCNC(=N)N)NC(=O)[C@@H](NC(=O)[C@@H](N)CC(=O)O)CSSC[C@@H]2NC(=O)[C@@H]3CSSC[C@@H](C(=O)N[C@@H](C)C(=O)N[C@@H](Cc4c[nH]c5ccccc45)C(=O)N[C@@H](CC(=O)O)C(=O)N[C@@H](Cc4ccccc4)C(=O)N[C@H](C(=O)N[C@@H](Cc4ccccc4)C(=O)N[C@H](C(=O)O)[C@@H](C)O)[C@@H](C)O)NC(=O)[C@H](Cc4ccc(O)cc4)NC(=O)[C@H](CCCCN)NC(=O)[C@H](CCSC)NC(=O)[C@H](CCCCN)NC(=O)[C@H](CCCNC(=N)N)NC(=O)[C@H](CCCCN)NC(=O)[C@H](CSSC[C@H](NC(=O)[C@H](CC(=O)O)NC(=O)CNC(=O)[C@H](Cc4ccccc4)NC1=O)C(=O)N[C@@H](CCCCN)C(=O)N[C@@H](CCCCN)C(=O)N[C@@H](CC(=O)O)C(=O)N[C@@H](CCC(=O)O)C(=O)N[C@@H](CC(=O)O)C(=O)N3)NC(=O)CNC(=O)[C@H](CC(C)C)NC(=O)[C@H](Cc1c[nH]cn1)NC(=O)[C@H](CCCCN)NC2=O [[E10K]Pnc1a] (H-DCRYMFGDCKKDEDCCKHLGCKRKMKYCAWDFTFT-OH; disulfide 2-16, 9-21, 15-28) | 0.384 | 9 | 0.172 | 4 | 5 | 128 | 2 | 49 | 13 | 326 | 0.82 | 20 | 0.041 | 1 | > 30 | >700
3 | CSCC[C@@H]1NC(=O)[C@H](Cc2ccc(O)cc2)NC(=O)[C@H](CCCNC(=N)N)NC(=O)[C@@H](NC(=O)[C@@H](N)CC(=O)O)CSSC[C@@H]2NC(=O)[C@@H]3CSSC[C@@H](C(=O)N[C@@H](C)C(=O)N[C@@H](Cc4c[nH]c5ccccc45)C(=O)N[C@@H](CC(=O)O)C(=O)N[C@@H](Cc4ccccc4)C(=O)N[C@H](C(=O)N[C@@H](Cc4ccccc4)C(=O)N[C@H](C(=O)O)[C@@H](C)O)[C@@H](C)O)NC(=O)[C@H](Cc4ccc(O)cc4)NC(=O)[C@H](CCCCN)NC(=O)[C@H](CCSC)NC(=O)[C@H](CCCCN)NC(=O)[C@H](CCCNC(=N)N)NC(=O)[C@H](CCCCN)NC(=O)[C@H](CSSC[C@H](NC(=O)[C@H](CC(=O)O)NC(=O)CNC(=O)[C@H](Cc4ccccc4)NC1=O)C(=O)N[C@@H](CCC(=O)O)C(=O)N[C@@H](CCCCN)C(=O)N[C@@H](CC(=O)O)C(=O)N[C@@H](C)C(=O)N[C@@H](CC(=O)O)C(=O)N3)NC(=O)CNC(=O)[C@H](CC(C)C)NC(=O)[C@H](Cc1c[nH]cn1)NC(=O)[C@H](CCCCN)NC2=O [[E13A]Pnc1a] (H-DCRYMFGDCEKDADCCKHLGCKRKMKYCAWDFTFT-OH; disulfide 2-16, 9-21, 15-28) | 4 | 29 | 0.566 | 4 | 2 | 18 | 5 | 36 | > 30 | >217 | 8 | 61 | 0.139 | 1 | > 30 | >217
